Assay results reported in ChEMBL document CHEMBL4819113, “Chemical modifications of ergostane-type triterpenoids from Antrodia camphorata and their cytotoxic activities” (Bioorg Med Chem Lett, 2021).

Legend:
HL-60 [1] = assay: Cytotoxicity against human HL-60 cells; format: functional, cell-based
U-251 [2] = assay: Cytotoxicity against human U-251 cells; format: functional, cell-based
SW480 [3] = assay: Cytotoxicity against human SW480 cells; format: functional, cell-based
MCF7 [4] = assay: Cytotoxicity against human MCF7 cells; format: functional, cell-based
MCF7 [5] = assay: Cytotoxicity against human MCF7 cells by MTT assay; format: functional, cell-based
SW480 [6] = assay: Cytotoxicity against human SW480 cells by MTT assay; format: functional, cell-based
HL-60 [7] = assay: Cytotoxicity against human HL-60 cells by MTT assay; format: functional, cell-based
U-251 [8] = assay: Cytotoxicity against human U-251 cells by MTT assay; format: functional, cell-based
L02 = assay: Cytotoxicity against human L02 cells by MTT assay; format: cell-based

Compound | IC50 (HL-60 [1]) | IC50 (U-251 [2]) | IC50 (SW480 [3]) | IC50 (MCF7 [4]) | IC50 (MCF7 [5]) | IC50 (SW480 [6]) | IC50 (HL-60 [7]) | IC50 (U-251 [8]) | Activity (L02)
C=C(CC[C@@H](C)[C@H]1CC[C@H]2C3=C(C(=O)C[C@]12C)[C@@]1(C)CCC(=O)[C@@H](C)[C@@H]1C[C@H]3OC(C)=O)[C@H](C)C(=O)OC | 16.8 µM | 11.4 µM | 15.4 µM | 46.3 µM | – | – | – | – | –
C=C(CC[C@@H](C)[C@H]1CC[C@H]2C3=C(C(=O)C[C@]12C)[C@@]1(C)CCC(=O)[C@@H](C)[C@@H]1C[C@H]3OC(C)=O)[C@H](C)C(=O)Nc1ccc2ccccc2n1 | – | – | – | – | > 100 µM | > 100 µM | 96.3 µM | 95.8 µM | –
C=C(CC[C@@H](C)[C@H]1CC[C@H]2C3=C(C(=O)C[C@]12C)[C@@]1(C)CCC(=O)[C@@H](C)[C@@H]1CC3=O)[C@H](C)C(=O)OC | 25.2 µM | 44.9 µM | > 100 µM | 50.7 µM | – | – | – | – | –
C=C(CC[C@@H](C)[C@H]1CC[C@H]2C3=C(C(=O)C[C@]12C)[C@@]1(C)CCC(=O)[C@@H](C)[C@@H]1C[C@H]3OC(C)=O)[C@H](C)C(=O)Nn1cnnc1 | – | – | – | – | > 100 µM | > 100 µM | > 100 µM | 82.4 µM | –
C=C(CC[C@@H](C)[C@H]1CC[C@H]2C3=C(C(=O)C[C@]12C)[C@@]1(C)CCC(=O)[C@@H](C)[C@@H]1C[C@H]3OC(C)=O)[C@H](C)C(=O)Nc1nc[nH]n1 | – | – | – | – | > 100 µM | > 100 µM | > 100 µM | 93.2 µM | –
C=C(CC[C@@H](C)[C@H]1CC[C@H]2C3=C(C(=O)C[C@]12C)[C@@]1(C)CCC(=O)[C@@H](C)[C@@H]1C[C@H]3OC(C)=O)[C@H](C)C(=O)Nc1cccc2cccnc12 | – | – | – | – | > 100 µM | > 100 µM | 89.2 µM | > 100 µM | –
C=C(CC[C@@H](C)[C@H]1CC[C@H]2C3=C(C(=O)C[C@]12C)[C@@]1(C)CCC(=O)[C@@H](C)[C@@H]1C[C@H]3OC(C)=O)[C@H](C)C(=O)Nc1[nH]cnc1C(N)=O | – | – | – | – | 17.6 µM | 17.9 µM | > 100 µM | 17.1 µM | –
C=C(CC[C@@H](C)[C@H]1CC[C@H]2C3=C(C(=O)C[C@]12C)[C@@]1(C)CCC(=O)[C@@H](C)[C@@H]1C[C@H]3OC(C)=O)[C@H](C)C(=O)Nc1ccc2[nH]ccc2c1 | – | – | – | – | 12.3 µM | > 100 µM | > 100 µM | 10.4 µM | –
C=C(CC[C@@H](C)[C@H]1CC[C@H]2C3=C(C(=O)C[C@]12C)[C@@]1(C)CC/C(=N\O)[C@@H](C)[C@@H]1C/C3=N/O)[C@H](C)C(=O)OC | – | – | – | – | 18.2 µM | 2.2 µM | 3.7 µM | 3.3 µM | Non-Toxic
C=C(CC[C@@H](C)[C@H]1CC[C@H]2C3=C(C(=O)C[C@]12C)[C@@]1(C)CCC(=O)[C@@H](C)[C@@H]1C[C@H]3OC(C)=O)[C@H](C)C(=O)Nc1ccccc1N | – | – | – | – | 29.2 µM | > 100 µM | 0.7 µM | 27.4 µM | Non-Toxic
CC(=O)O[C@H]1C(=O)[C@@]2(C)[C@H]([C@H](OC(=O)c3ccccc3)[C@]3(O)C[C@H](OC(=O)[C@H](O)[C@@H](NC(=O)c4ccccc4)c4ccccc4)C(C)=C1C3(C)C)[C@]1(OC(C)=O)CO[C@@H]1C[C@@H]2O [PACLITAXEL] | – | – | – | – | – | – | 0.08 µM | – | –
C=C(CC[C@@H](C)[C@H]1CC[C@H]2C3=C(C(=O)C[C@]12C)[C@@]1(C)CCC(=O)[C@@H](C)[C@@H]1C[C@H]3OC(C)=O)[C@H](C)C(=O)/N=c1/cc(CCc2ccccc2)[nH][nH]1 | – | – | – | – | > 100 µM | > 100 µM | > 100 µM | > 100 µM | –
C=C(CC[C@@H](C)[C@H]1CC[C@H]2C3=C(C(=O)C[C@]12C)[C@@]1(C)CCC(=O)[C@@H](C)[C@@H]1CC3=O)[C@H](C)C(=O)O [ANTCIN B] | > 100 µM | > 100 µM | > 100 µM | > 100 µM | – | – | – | – | –
C=C(CC[C@@H](C)[C@H]1CC[C@H]2C3=C(C(=O)C[C@]12C)[C@@]1(C)CCC(=O)[C@@H](C)[C@@H]1C[C@H]3OC(C)=O)[C@H](C)C(=O)O | > 100 µM | > 100 µM | > 100 µM | > 100 µM | – | – | – | – | –
C=C(CC[C@@H](C)[C@H]1CC[C@H]2C3=C(C(=O)C[C@]12C)[C@@]1(C)CCC(=O)[C@@H](C)[C@@H]1C[C@H]3OC(C)=O)[C@H](C)C(=O)Nc1ncc2ccccc2n1 | – | – | – | – | 8.6 µM | 40.8 µM | 8.9 µM | 2.9 µM | Non-Toxic
